Data set [1] in a line: In vitro cytotoxicity with L-6 cells (resazurin). Type of data set: cell-based. As to conditions: rat, read-out: Cytotoxicity against L6 Rat Skeletal Myoblasts IC50. The method, then: (§1) In vitro tests for determination of activity against axenic amastigotes of Leishmania donovani (MHOM-ET-67/L82 strain) and cytotoxicity against mammalian cells (L6-cell-line from rat skeletal myoblasts) as well as against intramacrophage amastigotes of L. donovani were conducted at Swiss TPH according to an established protocol as reported before. For a repetition of these methods, see Supplementary File.
(§2) Biological Assays (according to [14,15])
(§3) The following biological tests were performed by applying validated method s of the Swiss TPH as previously published and described below. […]
(§4) After that, resazurin solution
(§5) (12.5 mg in 100 mL water, 10 μL) was added to each well, and the incubation continued for 2–4 h more. Then, the plates were read using a Spectramax Gemini XS microplate fluorometer (Molecular Devices Cooperation, Sunnyvale, CA, USA) and excitation and emission wavelengths of 536 and 588 nm, respectively. Data were analyzed with the software Softmax Pro (Molecular Devices Cooperation, Sunnyvale, CA, USA), which calculated IC50 values by linear regression and 4‐parameter logistic regression from the sigmoidal dose inhibition curves. […]
Aliquots containing 105 amastigotes from the axenic culture (100 μL), with or without a serial compound dilution (as specified before), were seeded in 96‐well plates. After 70 h of incubation, the plates were inspected under an inverted microscope to assure growth of the controls and sterile conditions. […]
(§6) Netherlands). Compounds were diluted with medium as indicated above before being added to parasite cultures incubated in RPMI 1640 medium without hypoxanthine, supplemented with HEPES (5.94 g/L), NaHCO3 (2.1 g/L), neomycin (100 U/mL), AlbumaxR (5 g/L) and washed human red cells A+ at 2.5% hematocrit (0.3% parasitemia).
Serial compound dilutions were prepared as before. The 96‐well plates were incubated in a humidified atmosphere at 37 °C; 4% CO2, 3% O2, 93% N2. After 48 h, 50 μL of 3H‐hypoxanthine (0.5 μCi) was added to each well of the plate. The plates were incubated for a further 24 h under the same conditions. The plates were then harvested with a Betaplate™ cell harvester (Wallac, Zurich, Switzerland), and the red blood cells were transferred onto a glass fiber filter then washed with distilled water. The dried filters were inserted into a plastic foil with 10 mL of scintillation fluid and counted in a Betaplate™ liquid scintillation counter (Wallac, Zurich, Switzerland). […]
(§7) Serial compound dilutions prepared, as before, were us ed. […] Finally, the plates were read, and the data were treated as mentioned before. […]
Extracellular amast igotes were removed by triplicate washing after further 24 h. […] Images of the plates were recorded with an ImageXpress XLS (MD) microscope and automatically analyzed using the MetaXpress Software. […]

Data set [2] has as its system Leishmania donovani intracellular amastigotes. Briefly: In vitro activity against intracellular amastigotes of L. donovani in peritoneal murine macrophages. As to conditions: Macrophage. Type of data set: cell-based. The method, then: as §1, §2, §3
Serial compound dilutions were prepared as before. […] The dried filters were inserted into a plastic foil with 10 mL of scintillation fluid and counted in a Betaplate™ liquid scintillation counter (Wallac, Zurich, Switzerland). […]
as §7
Extracellular amast igotes were removed by triplicate washing after further 24 h. […] Images of the plates were recorded with an ImageXpress XLS (MD) microscope and automatically analyzed using the MetaXpress Software. Infected and non‐infected macrophages, as well as the number of intracellular parasites, were recorded. […]

In data set [3] the test system is Leishmania donovani axenic amastigotes (MHOM-ET-67/L82 strain). Briefly: In vitro activity against L. donovani axenic amastigotes (resazurin). The format is cell-based. As to conditions: for IC50: Leishmania donovani. The method, then: as §1
Miltefosine (≥98%, Sigma-Aldrich, Buchs, Switzerland) and podophyllotoxin (≥98%, Sigma-Aldrich, Buchs, Switzerland) were used as positive controls. Growth inhibition assays were meant to give only preliminary information on whether fractions show any bioactivity or not. Due to this explorative nature, this was conducted once. IC50 values represent geometric means of two independent determinations and were calculated by linear regression from the sigmoidal dose inhibition curves using SoftmaxPro (Molecular Devices Cooperation, Sunnyvale, CA, USA) software.
as §2, §3, §4, §5
In vitro activity against L. donovani axenic amastigotes. Amastigotes of L. donovani strain MHOM/ET/67/L82 were grown in axenic culture at 37 °C in SM medium at pH 5.4 supplemented with 10% heat‐inactivated fetal bovine serum under a 5% CO2 atmosphere. Aliquots containing […] amastigotes from the axenic culture (100 μL), with or without a serial compound dilution (as specified before), were seeded in 96‐well plates. After 70 h of incubation, the plates were inspected under an inverted microscope to assure growth of the controls and sterile conditions.
Then, resazurin solution (12.5 mg in 100 mL water, 10 μL) was added to each well and the plates incubated for another 2 h. Finally, the plates were read using the same conditions mentioned for T. brucei rhodesiense. Data were analyzed in the same way. Miltefosine was used as positive control. […]
as §6
Serial compound dilutions were prepared as before. The 96‐well plates were incubated in a humidified atmosphere at 37 °C; 4% CO2, 3% O2, 93% N2. After 48 h, 50 μL of 3H‐hypoxanthine (0.5 μCi) was added to each well of the plate. The plates were incubated for a further 24 h under the same conditions. […] The dried filters were inserted into a plastic foil with 10 mL of scintillation fluid and counted in a Betaplate™ liquid scintillation counter (Wallac, Zurich, Switzerland). […]

The subject of data set [4] is P. falciparum NF54 strain erythrocytic stages. Further details: method as in PMID 21157686. As to conditions: cited from earlier work.
Data set [5] concerns Leishmania donovani axenic amastigotes (MHOM-ET-67/L82 strain). Further details: method as in PMID 21157686. As to conditions: cited from earlier work.
Where [6] appears, read: geometric mean of two independent determinations (lower; upper).
Where [7] appears, read: geometric mean of two independent determinations.

SMILES strings stand for the structures. Values joined by “and” are separate entries in the source; they are usually repeats but may differ in a detail not shown here. Equal values may be shown once. Read-outs that look alike come from different tables or passages of the source.

Turning to `COc1cc([C@@H]2c3cc4c(cc3[C@H](O)[C@H]3COC(=O)[C@H]23)OCO4)cc(OC)c1OC` [PCP, podophyllotoxin], the results for the IC50 at 70 h in data set [1] (setting [6]) and in data set [1] (setting [7]) were 0.009 µg/mL and 0.02 µM, respectively.
As to `CCCCCCCCCCCCCCCCOP(=O)([O-])OCC[N+](C)(C)C` [PCM, miltefosine], the IC50 in data set [2] was 1.9 µg/mL and 4.7 µM; in data set [3] (setting [7]), 120 nM; in data set [3] (setting [6]) it was 0.047 µg/mL.
As for `C[C@H]1[C@H](C)CC[C@]2(C)CC[C@]3(C)C(=CC[C@@H]4[C@@]5(C)CC[C@@H](O)[C@](C)(C(=O)O)[C@@H]5CC[C@]43C)[C@H]12` [Compound 3, β-boswellic acid], the IC50 at 70 h in data set [1] (setting [6]) came to 15 µg/mL; in data set [1] (setting [7]) it was 33 µM. Also, in data set [3] (L6 cytotoxicity vs L. donovani axenic amastigotes), the “SI (selectivity index)” value was 6.2. Besides, the IC50 in data set [3] (setting [7]) is 5300 nM; in data set [3] (setting [6]), 2.4 µg/mL.
As for `C/C1=C\CC/C(C)=C/C[C@](O)(C(C)C)CC/C(C)=C/CC1` [Serratol], the “antiplasmodial activity in vitro” value in data set [4] was “antiplasmodial activity”. For the same compound, the “activity against L. donovani axenic amastigotes” value in data set [5] was “essentially inactive”.

Values taken from article PMC8232742, “Boswellic Acids Show In Vitro Activity against Leishmania donovani” (Molecules, 2021).
